Test results reported in US20090054304A1, “HETEROCYCLIC MODULATORS OF TGR5 FOR TREATMENT OF DISEASE” (KALYPSYS, INC., priority 2007, published 2009).

Each molecule was assayed against T1, human TGR5 (Homo sapiens, UniProt Q8TDU6) (assay: cAMP production assay in HEK293 cells stably expressing TGR5 (LANCE TR-FRET)). Settings: 30 minutes stimulation, 1 mM IBMX, read-out: cAMP Production in 293-TGR5 Cells.
T1 construct: expressed in transfected cells
T1 sequence (Q8TDU6 1-330): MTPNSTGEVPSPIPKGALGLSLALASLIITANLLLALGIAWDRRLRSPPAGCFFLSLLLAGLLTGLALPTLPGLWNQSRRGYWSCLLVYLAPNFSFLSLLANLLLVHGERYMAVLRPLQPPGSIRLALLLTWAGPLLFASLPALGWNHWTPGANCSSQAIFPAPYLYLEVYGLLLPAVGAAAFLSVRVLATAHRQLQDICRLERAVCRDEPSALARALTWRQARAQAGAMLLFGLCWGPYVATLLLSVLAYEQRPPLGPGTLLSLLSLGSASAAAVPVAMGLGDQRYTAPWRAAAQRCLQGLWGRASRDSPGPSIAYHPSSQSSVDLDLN
Type: cell-based
Method: HEK293 cells stably expressing TGR5 (HEK293-TGR5) were established by stably transfecting HEK-293 cells with an expression vector (pcDNA 3.1, Invetrogen) inserted with human TGR5 cDNA using Fugene6 (Roche, Indianapolis, Ind.) according to conventional methods. Cells were grown in DMEM (invitrogen, Carlsbad, Calif.) supplemented with 10% FBS, 1% penicillin/streptomycin under geneticin selection. The presence of TGR5 transcripts in these cells was confirmed using branched DNA (bDNA, Genospectra, Inc., Fremont Calif.) following the manufacturer's protocol and using specific probes for human TGR5. cAMP production assay was performed in high throughput 1536 well format using LANCE cAMP detection kit (Perkin Elmer Inc., Boston, Mass.) according to the manufacturer's protocol. Briefly, HEK293-TGR5 cells were harvested using non-enzymatic cell dissociation buffer (Invitrogen, Carlsbad, Calif.) and suspended in DMEM supplemented with 0.1% FBS at a density of 800,000 cells/ml. Alexa antibody was added to the cell suspension, and 4 ul of the mixture was dispensed in white opaque tissue culture treated Greiner 1536 well plates (USA Scientific, Inc., Ocala, Fla.). After an overnight incubation at 37C in an atmosphere of 10% CO2 and 95% humidity, 1 ul of 5 mM IBMX (Sigma, St. Louis, Mo.) solution in DMEM was dispensed for a final concentration of 1 mM. Cells were then stimulated with test compounds for 30 minutes, after which time 5 ul of detection reagent was added and incubated for 1-7 hrs at room temperature. TR-FRET signal was detected using the Viewlux (Perkin Elmer Inc., Boston Mass.). EC50 values were determined using Graph Pad Prizm analysis (GraphPad Software, Inc). The EC50 values for a wide range of bile acids generated from this assay were in agreement with the values published in the scientific literature. […] The symbol (+) denotes an EC50 value of ≦10 μM while the symbol (−) denotes an EC50 value of >10 μM (see Table 1).

Q: How did the EC50 turn out when `O=c1cc2nc(-c3ccsc3)c(CNCCc3ccc(Br)cc3)cc2c[nH]1` [Example 10, 3-((4-bromophenethylamino)methyl)-2-(thiophen-3-yl)-1,6-naphthyridin-7(6H)-one] was run?
A: Its EC50 is over 10 µM.

Q: With `CC(C)n1ncc2cc(CNCCc3ccc(Br)cc3)c(-c3ccsc3)nc21` [Example 2, 2-(4-Bromophenyl)-N-((1-isopropyl-6-(thiophen-3-yl)-1H-pyrazolo[3,4-b]pyridin-5-yl)methyl)ethanamine] as the molecule, how does the EC50 read?
A: Its EC50 is at most 10 µM.

Q: For `Brc1ccc(CCNCc2cc3ccncc3nc2-c2ccsc2)cc1` [Example 8, 2-(4-bromophenyl)-N-((2-(thiophen-3-yl)-1,7-naphthyridin-3-yl)methyl)ethanamine], which EC50 is on record?
A: The EC50 was at most 10 µM.

Q: Which EC50 does the source give for `COc1cc2nc(-c3ccsc3)c(CNCCc3ccc(Br)cc3)cc2cn1` [Example 9, 2-(4-bromophenyl)-N-((7-methoxy-2-(thiophen-3-yl)-1,6-naphthyridin-3-yl)methyl)ethanamine] here?
A: The EC50 was at most 10 µM.

Q: Which EC50 does the source give for `Cc1nn(C)c2nc(-c3ccsc3)c(CNCCc3ccc(Br)cc3)cc12` [Example 3, 2-(4-bromophenyl)-N-((1,3-dimethyl-6-(thiophen-3-yl)-1H-pyrazolo[3,4-b]pyridin-5-yl)methyl)ethanamine] here?
A: Its EC50 is at most 10 µM.

Q: With `CC(C)n1ncc2cc(CNCc3ccc(C(F)(F)F)cc3)c(-c3ccsc3)nc21` [Example 1, 1-(1-isopropyl-6-(thiophen-3-yl)-1H-pyrazolo[3,4-b]pyridin-5-yl)-N-(4-(trifluoromethyl)benzyl)methanamine] as the molecule, how does the EC50 read?
A: The EC50 was at most 10 µM.

Q: `COc1ccc2cc(CNCCc3ccc(Br)cc3)c(-c3ccsc3)nc2n1` [Example 11, 2-(4-bromophenyl)-N-((7-methoxy-2-(thiophen-3-yl)-1,8-naphthyridin-3-yl)methyl)ethanamine] was tested. Which EC50 did it give?
A: Its EC50 is at most 10 µM.

Q: How did the EC50 turn out when `O=c1ccc2cc(CNCCc3ccc(Br)cc3)c(-c3ccsc3)nc2[nH]1` [Example 12, 6-((4-bromophenethylamino)methyl)-7-(thiophen-3-yl)-1,8-naphthyridin-2(1H)-one] was run?
A: Its EC50 is at most 10 µM.

Q: `Brc1ccc(CCNCc2cc3sccc3nc2-c2ccsc2)cc1` [Example 5, 2-(4-bromophenyl)-N-((5-(thiophen-3-yl)thieno[3,2-b]pyridin-6-yl)methyl)ethanamine] was tested. Which EC50 did it give?
A: The EC50 was at most 10 µM.

Q: With `FC(F)(F)c1ccc(CNCc2cc3ccsc3nc2-c2ccsc2)cc1` [Example 7, 1-(6-(thiophen-3-yl)thieno[2,3-b]pyridin-5-yl)-N-(4-(trifluoromethyl)benzyl)methanamine] as the molecule, how does the EC50 read?
A: Its EC50 is at most 10 µM.

Q: `Cc1nn(C)c2nc(-c3ccsc3)c(CNCc3ccc(C(F)(F)F)cc3)cc12` [Example 4, 1-(1,3-dimethyl-6-(thiophen-3-yl)-1H-pyrazolo[3,4-b]pyridin-5-yl)-N-(4-(trifluoromethyl)benzyl)methanamine] was tested. Which EC50 did it give?
A: Its EC50 is over 10 µM.

Q: Which EC50 does the source give for `Brc1ccc(CCNCc2cc3ccsc3nc2-c2ccsc2)cc1` [Example 6, 2-(4-bromophenyl)-N-((6-(thiophen-3-yl)thieno[2,3-b]pyridin-5-yl)methyl)ethanamine] here?
A: The EC50 was at most 10 µM.
